Laboratory results taken from PMC10786919, “Design-rules for stapled peptides with in vivo activity and their application to Mdm2/X antagonists” (Nature Communications, 2024).
≈ marks a conversion by molar mass, not a printed value. Read-outs that look alike come from different tables or passages of the source. Positions of bridges follow the written chain, without caps; N, C: chain ends. Non-standard residues stand in square brackets, D forms with d. Residues, ends and D or L forms follow the SMILES beside them. Lys(N3) = [N-]=[N+]=NCCCC[C@H](N)C(=O)O; R8 = C=CCCCCCC[C@@](C)(N)C(=O)O; αMeE = C[C@](N)(CCC(=O)O)C(=O)O; Cba = N[C@@H](CC1CCC1)C(=O)O; S5 = C=CCCC[C@](C)(N)C(=O)O; βAla = NCCC(=O)O

Key:
[1] = in vitro; details: Nanoclick permeability assay EC50
Outline: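 Azido-peptide permeability was read as loss of NanoBRET signal (donor 450 nm, acceptor 610 nm) after adding NanoBret618-azide at 10 μM final.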

[2] = EPSA; format: physicochemical
[3] = Experimental LogD (partition coefficient); details: for logD: not stated, Partition Coeff LogD
[4] = Lactate dehydrogenase (LDH) release assay; format: cell-based; details: LDH: Cytotoxicity assay: EC50
Outline: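 HCT116 cells stably carrying a p53-responsive β-lactamase reporter, seeded at 8000 cells/well, exposed to compound with 0.5% final DMSO. LDH release read with the CytoTox-ONE membrane integrity kit. Values are geometric means of at least three biological replicates.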

[5] = Solubility assay (kinetic solubility, PBS pH 7); format: physicochemical; details: for solubility kinetic: read-out: Solubility
Outline: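 Reference standards were made by diluting the 10 mM stock to 100 µM in acetonitrile:methanol:DMSO 10:80:10. Solubility in µM was calculated as the sample peak area divided by the standard peak area, multiplied by the standard concentration.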

[6] = tested on: CellSensor p53RE-bla HCT-116 Cell Line; details: 72 h
Outline: (§1)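 Compound dilution series (10 points, 3-fold, 10 mM top stock in DMSO) tested on overnight-plated Ca Ski cells in RPMI1640/10% FBS and on blasticidin-selected p53RE-bla HCT-116 cells in McCoy's 5A; read-out was CellTiter-Glo 2.0 luminescence after room-temperature equilibration.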

[7] = tested on: Ca Ski cell line; details: 72 h
Outline: as §1

[8] = pH 7, aqueous buffer, kinetic from dmso stock, pH 7, PBS

| Structure (SMILES) | cell entry EC50 [1] [nM] | EPSA ([2]; EPSA) [A^2] | Partition Coeff LogD [3] | EC50 [4] [nM] | Solubility [5] | Solubility ([5]; pH 7, PBS) | EC50 [6] [nM] | EC50 [7] [nM] | solubility kinetic [5, 8] [µM] | logD [3] | solubility kinetic [5] [µM] | EPSA [2] |
| --- | --- | --- | --- | --- | --- | --- | --- | --- | --- | --- | --- | --- |
| CC(=O)N[C@@H](CCCCN=[N+]=[N-])C(=O)NCCC(=O)N[C@@H](CC(C)C)C(=O)N[C@H](C(=O)N[C@@H](Cc1ccccc1)C(=O)N[C@]1(C)CCCCCCC=CCCC[C@@](C)(C(=O)N[C@@H](C)C(=O)N[C@@H](C)C(=O)N[C@@H](Cc2ccccc2)C(=O)N[C@@H](C)C(=O)N[C@@H](C)C(=O)N[C@@H](Cc2ccccc2)C(N)=O)NC(=O)[C@H](CC2CCC2)NC(=O)[C@H](CCC(N)=O)NC(=O)[C@H](C)NC(=O)[C@H](Cc2c[nH]c3ccccc23)NC(=O)[C@H](Cc2ccc(O)cc2)NC(=O)[C@H](CCC(=O)O)NC1=O)[C@@H](C)O [MP-040] (Ac-[Lys(N3)][βAla]LTF[R8]EYWAQ[Cba][S5]AAFAAF-NH2; staple 6-13) | 439 | 204 | Poorly Behaved | > 50700 | P.B. | Poorly Behaved | 1220 | > 49800 |  |  |  |  |
| CC(=O)N[C@@H](CCCCN=[N+]=[N-])C(=O)NCCC(=O)N[C@@H](CC(C)C)C(=O)N[C@H](C(=O)N[C@@H](Cc1ccccc1)C(=O)N[C@]1(C)CCCCCCC=CCCC[C@@](C)(C(=O)N[C@@H](C)C(=O)N[C@@H](C)C(=O)N[C@@H](C)C(=O)N[C@@H](C)C(=O)N[C@@H](C)C(=O)N[C@@H](Cc2ccccc2)C(N)=O)NC(=O)[C@H](CC2CCC2)NC(=O)[C@H](CCC(N)=O)NC(=O)[C@H](C)NC(=O)[C@H](Cc2c[nH]c3ccccc23)NC(=O)[C@H](Cc2ccc(O)cc2)NC(=O)[C@H](CCC(=O)O)NC1=O)[C@@H](C)O [MP-060] (Ac-[Lys(N3)][βAla]LTF[R8]EYWAQ[Cba][S5]AAAAAF-NH2; staple 6-13) | 1090 | 198 | Poorly Behaved | > 50700 | P.B. | Poorly Behaved |  | > 49800 |  |  |  |  |
| CC(=O)N[C@@H](CCCCN=[N+]=[N-])C(=O)NCCC(=O)N[C@@H](CC(C)C)C(=O)N[C@H](C(=O)N[C@@H](Cc1ccccc1)C(=O)N[C@]1(C)CCCCCCC=CCCC[C@@](C)(C(=O)N[C@@H](C)C(=O)N[C@@H](C)C(=O)N[C@@H](Cc2ccccc2)C(=O)N[C@@H](C)C(=O)N[C@@H](C)C(=O)N[C@H](Cc2ccccc2)C(N)=O)NC(=O)[C@H](CC2CCC2)NC(=O)[C@H](CCC(N)=O)NC(=O)[C@H](C)NC(=O)[C@H](Cc2c[nH]c3ccccc23)NC(=O)[C@H](Cc2ccc(O)cc2)NC(=O)[C@H](CCC(=O)O)NC1=O)[C@@H](C)O [MP-063] (Ac-[Lys(N3)][βAla]LTF[R8]EYWAQ[Cba][S5]AAFAA[dF]-NH2; staple 6-13) | 394 | 199 |  | > 50700 |  |  | 2780 | > 49800 | 9 (≈ 20.9 µg/mL) |  |  |  |
| CC(=O)N[C@@H](CCCCN=[N+]=[N-])C(=O)NCCC(=O)N[C@@H](CC(C)C)C(=O)N[C@H](C(=O)N[C@@H](Cc1ccccc1)C(=O)N[C@]1(C)CCCCCCC=CCCC[C@@](C)(C(=O)N[C@@H](C)C(=O)N[C@@H](C)C(=O)N[C@@H](Cc2ccccc2)C(=O)N[C@@H](C)C(=O)N[C@@](C)(CCC(=O)O)C(=O)N[C@@H](Cc2ccccc2)C(N)=O)NC(=O)[C@H](CC2CCC2)NC(=O)[C@H](CCC(N)=O)NC(=O)[C@H](C)NC(=O)[C@H](Cc2c[nH]c3ccccc23)NC(=O)[C@H](Cc2ccc(O)cc2)NC(=O)[C@H](CCC(=O)O)NC1=O)[C@@H](C)O [MP-229] (Ac-[Lys(N3)][βAla]LTF[R8]EYWAQ[Cba][S5]AAFA[αMeE]F-NH2; staple 6-13) | 2090 | 253 |  | > 50700 |  |  | 2320 | 19900 | 153 (≈ 366 µg/mL) | 2.93 | 157 (≈ 376 µg/mL) |  |
| CC(=O)N[C@@H](CCCCN=[N+]=[N-])C(=O)NCCC(=O)N[C@@H](CC(C)C)C(=O)N[C@H](C(=O)N[C@@H](Cc1ccccc1)C(=O)N[C@]1(C)CCCCCCC=CCCC[C@@](C)(C(=O)N[C@@H](CO)C(=O)N[C@@H](C)C(=O)N[C@@H](CCC(=O)O)C(N)=O)NC(=O)[C@H](CC2CCC2)NC(=O)[C@H](CCC(N)=O)NC(=O)[C@H](C)NC(=O)[C@H](Cc2c[nH]c3ccccc23)NC(=O)[C@H](Cc2ccc(O)cc2)NC(=O)[C@H](CCC(=O)O)NC1=O)[C@@H](C)O [MP-524] | 1320 |  |  | > 50700 |  |  | 1340 | > 49800 | 148 (≈ 300 µg/mL) | 2.1 |  | Poorly Behaved |
| CC(=O)N[C@@H](CCCCN=[N+]=[N-])C(=O)NCCC(=O)N[C@@H](CC(C)C)C(=O)N[C@H](C(=O)N[C@@H](Cc1ccccc1)C(=O)N[C@]1(C)CCCCCCC=CCCC[C@@](C)(C(=O)N[C@@H](CO)C(=O)N[C@@H](C)C(=O)N[C@@H](C)C(N)=O)NC(=O)[C@H](CCC(=O)O)NC(=O)[C@H](CCC(N)=O)NC(=O)[C@H](C)NC(=O)[C@H](Cc2c[nH]c3ccccc23)NC(=O)[C@H](Cc2ccc(O)cc2)NC(=O)[C@H](CCC(=O)O)NC1=O)[C@@H](C)O [MP-841] | 878 | 255 |  | > 50700 |  |  |  | > 49800 | 162 (≈ 320 µg/mL) | 2.06 |  |  |
| CC(=O)N[C@@H](CCCCN=[N+]=[N-])C(=O)NCCC(=O)N[C@@H](CC(C)C)C(=O)N[C@H](C(=O)N[C@@H](Cc1ccccc1)C(=O)N[C@]1(C)CCCCCCC=CCCC[C@@](C)(C(=O)N[C@@H](CO)C(=O)N[C@@H](C)C(=O)N[C@@H](C)C(N)=O)NC(=O)[C@H](CC2CCC2)NC(=O)[C@H](CCC(N)=O)NC(=O)[C@H](C)NC(=O)[C@H](Cc2c[nH]c3ccccc23)NC(=O)[C@H](CCC(=O)O)NC(=O)[C@H](CCC(=O)O)NC1=O)[C@@H](C)O [MP-842] | 297 | 216 |  | > 50700 |  |  | 23400 | > 49800 | 157 (≈ 304 µg/mL) | 2.25 |  |  |
| CC(=O)N[C@@H](CCCCN=[N+]=[N-])C(=O)NCCC(=O)N[C@@H](CC(C)C)C(=O)N[C@H](C(=O)N[C@@H](CCC(=O)O)C(=O)N[C@]1(C)CCCCCCC=CCCC[C@@](C)(C(=O)N[C@@H](CO)C(=O)N[C@@H](C)C(=O)N[C@@H](C)C(N)=O)NC(=O)[C@H](CC2CCC2)NC(=O)[C@H](CCC(N)=O)NC(=O)[C@H](C)NC(=O)[C@H](Cc2c[nH]c3ccccc23)NC(=O)[C@H](Cc2ccc(O)cc2)NC(=O)[C@H](CCC(=O)O)NC1=O)[C@@H](C)O [MP-843] | 597 | 208 |  | > 50700 |  |  |  | > 49800 | 151 (≈ 295 µg/mL) | 1.78 |  |  |
| CC(=O)N[C@@H](CCCCN=[N+]=[N-])C(=O)NCCC(=O)N[C@@H](CC(C)C)C(=O)N[C@H](C(=O)N[C@@H](Cc1ccccc1)C(=O)N[C@]1(C)CCCCCCC=CCCC[C@@](C)(C(=O)N[C@@H](CO)C(=O)N[C@@H](C)C(=O)N[C@@H](C)C(N)=O)NC(=O)[C@H](CC2CCC2)NC(=O)[C@H](CCC(N)=O)NC(=O)[C@H](C)NC(=O)[C@H](CCC(=O)O)NC(=O)[C@H](Cc2ccc(O)cc2)NC(=O)[C@H](CCC(=O)O)NC1=O)[C@@H](C)O [MP-956] | 9220 | 198 |  | > 50700 |  |  |  | > 49800 | 175 (≈ 335 µg/mL) | 1.7 |  |  |
